Tested on: isomaltulose-synthesising activity of the immobilized cells
Test: Effect of chloramphenicol in the sucrose substrate on immobilized cells
Format: cell-based, Erwinia rhapontici
Details: 0.1 g/l in 55% (w/v) sucrose
Excerpt: This hypothesis was confirmed when 0.1 g/l of chloramphenicol, which inhibits protein synthesis, was included in the 55% (w/v) sucrose used as substrate.

O=C(N[C@H](CO)[C@H](O)c1ccc([N+](=O)[O-])cc1)C(Cl)Cl [chloramphenicol]
isomaltulose-synthesising activity in presence of chloramphenicol: unaffected | cell division in presence of chloramphenicol (even when nutrients supplied): no cell division took place

Source: patent US4359531A, “Production of isomaltulose” (Talres Development (N.A.) N.V., priority 1979, dated 1982)
